Data as given in patent publication US20260262639A1, “PHENYLCYCLOHEXANONE COMPOUND AND USE THEREFOR” (SUMITOMO CHEMICAL COMPANY, LIMITED, priority 2023, published 2026).

Tested on: Pythium ultimum
Assay: Control test against seedling blight fungus (Pythium ultimum)
Format: cell-based
Conditions: 1 μL of 500 ppm DMSO solution + 150 μL PDB medium with spores, 96 well plate, 23° C., 5 days, absorbance at 550 nm
Description: The untreated well represents a test well in which the procedures were carried out under the same conditions as those described in the Test Example except that dimethyl sulfoxide was dispensed in place of a diluted dimethyl sulfoxide solution containing the Present compound. The Present compound was diluted with dimethyl sulfoxide to obtain a diluted solution containing 500 ppm of the compound, 1 μL of the diluted solution was dispensed into a titer plate (96 well), and thereto was then dispensed 150 μL of a potato dextrose broth medium (PDB medium) to which spores of Pythium ultimum were inoculated in advance. This plate was cultured at 23° C. for 5 days, thereby allowing Pythium ultimum to undergo proliferation, and the absorbance at 550 nm of each well of the titer plate was then measured to obtain a value as a degree of growth of Pythium ultimum. As a result, the degree of growth in the well treated with the Present compound was 50% or less relative to the degree of growth in the untreated well.

CC1CC(S(C)(=O)=O)C(O)(c2ccccc2)CC1=O (stereo not shown) [Present compound]
degree of growth relative to the degree of growth in the untreated well: ≤ 50%
